Values quoted from earlier work as cited in patent US6369001B1, “Microemulsion coformulation of a graminicide and a water-soluble herbicide” (Monsanto Technology, LLC, priority 1999, dated 2002).
Entries after “also recorded” stand apart in the source; their conditions may differ.

Conditions: aqueous medium

| SMILES | pH dependence of chemical stability / hydrolysis in water |
| --- | --- |
| COC(=O)C(C)Oc1ccc(Oc2ccc(Cl)cc2Cl)cc1 (stereo not drawn) [diclofop-methyl] | undergoes hydrolysis more readily in an alkaline medium |
| CCOC(=O)[C@@H](C)Oc1ccc(Oc2cnc3cc(Cl)ccc3n2)cc1 [quizalofop-P-ethyl] | hydrolysis occurring most rapidly when pH is in the alkaline range; also recorded: greater chemical stability in acid to neutral than in alkaline media |
| CCO/N=C(\CC)C1=C(O)CC(c2c(C)cc(C)cc2C)CC1=O (stereo not drawn) [tralkoxydim] | especially unstable in an acid medium; also recorded: much more stable at pH 9 than at pH 5 |
